This is an account of results in patent US20210164051A1, “METHODS OF DETECTION AND ANALYSIS OF NUCLEIC ACID IN NEURAL-DERIVED EXOSOMES” (priority 2019, published 2021).

In series [1] the test system is anterior horn motor neurons.
In series [2] the test system is TDP-43+ anterior horn motor neurons.
The subject of series [3] is GFAP+ astroglia.
The test system of series [4] is IbA1+ microglia. The following applies: for IbA1+ Density / IbA1+ microglia Size: median ± SEM, n = 8.
For series [5], the system named is myelinated axon fibers. The following applies: 7 of 16 vervets exposed to BMAA; NS, p=0.0956.
In series [6] the test system is tau AT8+ NFT. The settings on record: averaged across 7 cortical regions.
Series [7] has as its system CD68+ microglia.
Where [8] appears, read: vervet spinal cord, 210 mg/kg/day oral, 140 days, median ± SEM.
Setting [9] is: anterior horn, 210 mg/kg/day, 140 days, median ± SEM.
Setting [10] is: lateral corticospinal tracts, Cervical Segment.
The mark [11] stands for this setting: lateral corticospinal tracts, Lumbar Segment.
[12] abbreviates: lateral corticospinal tract, stimulated by BMAA dosing.

SMILES strings stand for the structures. Read-outs that look alike come from different tables or passages of the source.

For `CNC[C@H](N)C(=O)O` [BMAA, β-N-methylamino-L-alanine], the “median total BMAA concentration in spinal cord tissues” value (BMAA and BMAA L-serine dosing cohorts pooled, ±13.7 SE) was determined as 61.4 µg/g. Also, under setting [8], the “Free BMAA per gram of spinal cord tissues” value is 8.9 ± 3.9 ^NS μg/g, the “Hydrolyzed Protein Pellet BMAA per gram of spinal cord tissues” value was 0.5 ± 0.3 ^NS μg/g and the “Hydrolyzed Supernatant BMAA per gram of spinal cord tissues” value is 34.0 ± 20.5 ^NS μg/g. In series [1] (BMAA 210 mg/kg/day, 140 days, p=0.0016), the “decrease of anterior horn neuronal numbers” value is reported as 23%. For the same molecule, the “greater frequency of eosinophilic neurons vs rice flour controls” value in series [1] (cervical spinal cord anterior horns, BMAA 210 mg/kg/day, 140 days, p=0.024) was 4.3 fold. For the same molecule, the “reduction in size of eosinophilic lower motor neurons” value in series [1] (cervical spinal cord anterior horns, p<0.0001) came out at 40%. Moreover, the “vervets with cytoplasmic mislocalization of FUS protein” value in series [2] (2 of the 16 BMAA-dosed vervets) was 12.5%. In addition, in series [2] (12 of 16 vervets fed BMAA), the “vervets with neurons positive for TDP-43 cytoplasmic inclusion bodies” value came out at 75%. For the same molecule, in series [2] (setting [9]), the “number of TDP-43+ motor neurons per region of interest, All Spinal Cord Segments” value came out at 4.5 ± 1.7; the “number of TDP-43+ motor neurons per region of interest, Cervical Segment” value stood at 3.0 ± 1.9; the “number of TDP-43+ motor neurons per region of interest, Lumbar Segment” value amounted to 3.0 ± 3.1. The “mean density and distribution of TDP-43+ inclusions vs controls” value in series [2] (toxin-dosed vervets, p=0.024) was 5 fold. Further, the “increase of median numbers of GFAP+ astroglia” value in series [3] (anterior horn of the lumbar spinal cord, p=0.008, n=8) was determined as 44%. The “increase of density of GFAP+ activated astroglia” value in series [3] (anterior horns of the lumbar spinal cord, p=0.008) was 1.4 fold. For the same molecule, the “density and total area covered by IbA1+ microglia, cervical compared to lumbar segments” value in series [4] (BMAA-dosed primates, p=0.0039) is recorded as 1.5 fold. In series [4] (setting [10]), the “IbA1+ Density” value was found to be 1831.8 ± 206.9 Ct and the “IbA1+ microglia Size” value is given as 15.4 ± 1.7^NS Px. For the same molecule, in series [4] (setting [11]), the “IbA1+ Density” value is recorded as 1213.7 ± 151.5^NS Ct and the “IbA1+ microglia Size” value was 13.9 ± 1.9^NS Px. Also, in series [4] (lateral corticospinal tracts, cervical spinal cord, p=0.011, n=8), the “increase of total area covered by IbA1+ microglia vs rice flour controls” value was 1.6 fold. The “increase of median density of IbA1+ microglia vs rice flour controls” value in series [4] (lateral corticospinal tracts, cervical spinal cord, p=0.048, n=8) stood at 1.7 fold. The “effect on the size of Iba1+ microglia” value in series [4] (lateral corticospinal tracts, NS, p=0.260, n=8) is on record as “did not have a significant effect”. Further, the “vervets with loss of myelinated axon fiber staining in the lateral corticospinal tracts” value in series [5] is listed as 44%. Further, in series [6] (p<0.0001, n=8), the “increase of median cortical tau AT8+ NFT density” value is 3.1 fold.
Regarding `N[C@@H](CO)C(=O)O` [L-serine], the “effect of L-serine coadministration on median concentrations of BMAA in spinal cord” value (any fraction of the vervet spinal cord) is on record as “did not significantly reduce”. The “reduction of total number of GFAP+ astroglia by coadministration of L-serine” value in series [3] (anterior horn of the lumbar spinal cord, BMAA + L-serine both 210 mg/kg/day, p=0.008) is 21%. The “reduction of total area of GFAP+ astroglia by coadministration of L-serine” value in series [3] (anterior horn of the lumbar spinal cord, automated image analysis, p=0.007) came to 20%. Moreover, in series [4] (setting [12]), the “attenuation of mean Iba1+ microglia distribution by coadministration of L-serine” value amounted to 32%. Moreover, the “attenuation of CD68+ microglial expression by coadministration of L-serine” value in series [7] (setting [12]) is given as 24%. For the same molecule, the “effect of L-serine coadministration on CD68+ microglial nodule numbers, size and expression intensity” value in series [7] (p=0.01, n=8) is recorded as “reduced”. The “attenuation of BMAA-induced tau NFT density by coadministration of L-serine” value in series [6] is 40%.
